In patent publication US20120302607A1, “C4-SUBSTITUTED ALPHA-KETO OXAZOLES” (The Scripps Research Institute, priority 2008, published 2012):
Where two headings read alike, the source gives them in different places.

Experiments:
[1] = target: T1, membrane-associated hydrolase (KIAA1363) (UniProt Q8BLF1); assay: Proteome-wide serine hydrolase selectivity screening, KIAA1363; assay type: biochemical; conditions: selectivity screening
T1 sequence (Q8BLF1 1-408): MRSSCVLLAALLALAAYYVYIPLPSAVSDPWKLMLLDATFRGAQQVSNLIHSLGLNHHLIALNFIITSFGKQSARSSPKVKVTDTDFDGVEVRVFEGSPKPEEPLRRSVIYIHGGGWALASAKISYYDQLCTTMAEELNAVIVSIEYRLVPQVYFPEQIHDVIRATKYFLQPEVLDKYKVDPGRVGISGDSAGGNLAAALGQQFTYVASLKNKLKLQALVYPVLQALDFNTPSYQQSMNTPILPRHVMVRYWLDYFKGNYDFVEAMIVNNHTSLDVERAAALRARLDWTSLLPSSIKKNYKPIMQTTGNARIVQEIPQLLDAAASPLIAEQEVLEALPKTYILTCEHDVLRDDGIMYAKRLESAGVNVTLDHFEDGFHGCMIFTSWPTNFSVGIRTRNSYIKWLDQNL

[2] = target: T2, triacylglycerol hydrolase (TGH) (UniProt Q8VCT4); assay: Proteome-wide serine hydrolase selectivity screening, TGH; assay type: biochemical, human; conditions: selectivity screening
T2 sequence (Q8VCT4 1-565): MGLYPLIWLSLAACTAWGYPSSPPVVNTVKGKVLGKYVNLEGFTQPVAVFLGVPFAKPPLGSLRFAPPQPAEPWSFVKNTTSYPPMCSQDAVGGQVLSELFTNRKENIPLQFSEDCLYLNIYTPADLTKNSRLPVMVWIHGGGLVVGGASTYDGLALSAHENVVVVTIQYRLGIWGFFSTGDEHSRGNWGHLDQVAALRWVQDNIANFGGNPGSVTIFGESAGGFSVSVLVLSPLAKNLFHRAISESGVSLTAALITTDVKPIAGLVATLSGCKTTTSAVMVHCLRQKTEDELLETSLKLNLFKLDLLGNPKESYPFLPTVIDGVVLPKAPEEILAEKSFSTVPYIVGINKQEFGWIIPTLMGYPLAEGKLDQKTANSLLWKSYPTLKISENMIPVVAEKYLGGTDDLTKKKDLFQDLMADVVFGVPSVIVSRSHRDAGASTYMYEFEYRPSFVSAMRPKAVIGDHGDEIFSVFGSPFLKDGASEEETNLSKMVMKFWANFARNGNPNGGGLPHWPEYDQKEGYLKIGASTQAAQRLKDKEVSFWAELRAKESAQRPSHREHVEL

[3] = target: T3, truncated rat FAAH (rFAAH) (Rattus norvegicus, UniProt P97612); assay: Rat FAAH inhibition enzyme assay (14C-oleamide hydrolysis, Dixon plot); assay type: biochemical
T3 construct: The truncated rat FAAH (rFAAH) was expressed in E. coli and purified as described by Patricelli et al; made in house; host or cells: E. coli
T3 sequence (P97612 30-579 limits assumed): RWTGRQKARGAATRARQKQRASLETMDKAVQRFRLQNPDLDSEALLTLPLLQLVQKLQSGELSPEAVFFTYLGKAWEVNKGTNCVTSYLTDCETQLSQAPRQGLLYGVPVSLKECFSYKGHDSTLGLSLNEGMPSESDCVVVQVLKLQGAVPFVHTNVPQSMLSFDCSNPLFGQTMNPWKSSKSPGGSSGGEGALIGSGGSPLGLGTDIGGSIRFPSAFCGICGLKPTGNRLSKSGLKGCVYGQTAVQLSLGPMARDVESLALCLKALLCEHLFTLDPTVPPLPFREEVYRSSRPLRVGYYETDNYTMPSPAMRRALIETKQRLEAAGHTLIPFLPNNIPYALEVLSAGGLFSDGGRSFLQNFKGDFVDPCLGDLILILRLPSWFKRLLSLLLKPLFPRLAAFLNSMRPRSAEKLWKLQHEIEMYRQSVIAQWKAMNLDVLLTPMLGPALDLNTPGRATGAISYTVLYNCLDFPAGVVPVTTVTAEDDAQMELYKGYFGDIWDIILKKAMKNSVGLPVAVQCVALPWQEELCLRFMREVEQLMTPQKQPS
Method: The purified recombinant rFAAH was used in the inhibition assays unless otherwise indicated.
The ^14C-labeled oleamide (substrate) and oleic acid (product) were extracted with EtOAc and analyzed by TLC. The Ki of the inhibitor was calculated using a Dixon plot (standard deviations are provided in the Supporting Information tables).

[4] = % hydration or hemiketal formation by 1H and 13C NMR in solvent; assay type: physicochemical; conditions: for form in protic solution: at C4, not C2, 1H and 13C NMR
Excerpt: The evaluation of Ki provides information about active site binding. […] More subtly, aldehyde 4g (and trifluoromethyl ketone 4i) was established to exist in protic solution as gem diols (at C4, not C2; ^1H and ^13C NMR, data in Examples below).

[5] = test system: triacylglycerol hydrolase (TGH); assay: Proteome-wide serine hydrolase selectivity screening, TGH; assay type: biochemical, human; conditions: FAAH versus TGH; for TGH (selectivity): value in parentheses
[6] = test system: membrane-associated hydrolase (KIAA1363); assay: Proteome-wide serine hydrolase selectivity screening, KIAA1363; assay type: biochemical; conditions: value in parentheses; FAAH versus KIAA1363
FAAH = target: T4, FAAH (UniProt O08914); assay: Proteome-wide serine hydrolase selectivity screening, FAAH; assay type: biochemical, human
T4 sequence (O08914 1-579): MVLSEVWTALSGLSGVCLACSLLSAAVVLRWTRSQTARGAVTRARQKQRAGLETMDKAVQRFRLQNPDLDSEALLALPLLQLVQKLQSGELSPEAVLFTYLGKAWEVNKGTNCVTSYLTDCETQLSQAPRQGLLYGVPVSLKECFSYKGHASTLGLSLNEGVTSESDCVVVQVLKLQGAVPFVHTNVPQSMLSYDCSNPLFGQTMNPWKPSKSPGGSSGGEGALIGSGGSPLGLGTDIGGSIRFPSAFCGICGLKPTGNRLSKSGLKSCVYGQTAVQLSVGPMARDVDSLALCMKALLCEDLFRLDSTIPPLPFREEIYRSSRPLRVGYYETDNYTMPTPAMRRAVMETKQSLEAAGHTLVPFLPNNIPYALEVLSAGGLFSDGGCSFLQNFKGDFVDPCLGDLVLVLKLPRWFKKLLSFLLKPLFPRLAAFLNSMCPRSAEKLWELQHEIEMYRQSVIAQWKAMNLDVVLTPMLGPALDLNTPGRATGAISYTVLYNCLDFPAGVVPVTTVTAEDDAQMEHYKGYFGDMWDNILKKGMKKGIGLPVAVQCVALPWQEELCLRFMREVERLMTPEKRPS

[7] = Table 1, purified recombinant rFAAH, pH 9.0, read-out: Rat FAAH inhibition Ki
[8] = Table 4, value ± error, read-out: Ki, inhibition results with calculated errors
[9] = CD3OD, at the C4 substituent carbonyl

Structure (SMILES)	IC50 [1] [nM]	IC50 [2] [nM]	Ki [3, 7] [nM]	Ki [3, 8] [nM]	further results
O=C(CCCCCCc1ccccc1)c1ncc(-c2ccccn2)o1 [Compound 5c, reference compound]	> 100000	–	–	–	–
O=C(CCCCCCc1ccccc1)c1nc(C(=O)C(F)(F)F)co1 [Compound 4i, 7-Phenyl-1-(4-(2,2,2-trifluoroacetyl)oxazol-2-yl)heptan-1-one]	–	–	470	470 ± 2	form in protic solution [4]: gem diols
CN(C)C(=O)c1coc(C(=O)CCCCCCc2ccccc2)n1 [Compound 4r, N,N-Dimethyl-2-(7-phenylheptanoyl)oxazole-4-carboxamide]	–	–	35	35 ± 0.1	–
Cc1coc(C(=O)CCCCCCc2ccccc2)n1 [Compound 4e, 1-(4-Methyloxazol-2-yl)-7-phenylheptan-1-one]	–	–	520	520 ± 1	–
O=C(CCCCCCc1ccccc1)c1nc(Br)co1 [Compound 4b, 1-(4-Bromooxazol-2-yl)-7-phenylheptan-1-one]	–	–	3	3 ± 0.02	–
O=C(CCCCCCc1ccccc1)c1nc(-c2cccnc2)co1 [Compound 4l, 7-Phenyl-1-(4-(pyridin-3-yl)oxazol-2-yl)heptan-1-one]	–	–	18	18 ± 0.1	% Hydration or Hemiketal Formation [4, 9]: >95% for COCF3; % Hydration or Hemiketal Formation ([4]; CDCl3): 33%
COc1coc(C(=O)CCCCCCc2ccccc2)n1 [Compound 4u, 1-(4-Methoxyoxazol-2-yl)-7-phenylheptan-1-one]	–	–	740	740 ± 0.07	–
COC(=O)c1coc(C(=O)CCCCCCc2ccccc2)n1 [Compound 4j, Methyl 2-(7-Phenylheptanoyl)oxazole-4-carboxylate]	–	–	3.4	3.4 ± 0.05	–
O=Cc1coc(C(=O)CCCCCCc2ccccc2)n1 [Compound 4g, 2-(7-Phenylheptanoyl)oxazole-4-carbaldehyde]	–	–	55	55 ± 5	% Hydration or Hemiketal Formation [4, 9]: >95% for CHO; % Hydration or Hemiketal Formation ([4]; CDCl3): 0%; form in protic solution [4]: gem diols
O=C(CCCCCCc1ccccc1)c1nc(-c2ccccc2)co1 [Compound 4n, 7-Phenyl-1-(4-phenyloxazol-2-yl)heptan-1-one]	–	–	65	65 ± 4.4	–
CSc1coc(C(=O)CCCCCCc2ccccc2)n1 [Compound 4f, 1-(4-(Methylthio)oxazol-2-yl)-7-phenylheptan-1-one]	–	–	29	29 ± 0.2	–
O=C(CCCCCCc1ccccc1)c1nc(C(F)(F)F)co1 [Compound 4t, 7-Phenyl-1-(4-(trifluoromethyl)oxazol-2-yl)heptan-1-one]	10000	60	3.7	3.7 ± 0.02	TGH (selectivity) [5]: (0.15); KIAA1363 (selectivity) [6]: (25); IC50 (FAAH): 400 nM; Ki ([3]; Table 2, read-out: FAAH Ki): 3.7 nM
N#Cc1coc(C(=O)CCCCCCc2ccccc2)n1 [Compound 4s, 2-(7-Phenylheptanoyl)oxazole-4-carbonitrile]	30000	30	0.5	0.5 ± 0.009	TGH (selectivity) [5]: (1.5); KIAA1363 (selectivity) [6]: (1500); IC50 (FAAH): 20 nM; Ki ([3]; Table 2, read-out: FAAH Ki): 0.6 nM
CNC(=O)c1coc(C(=O)CCCCCCc2ccccc2)n1 [Compound 4q, N-Methyl-2-(7-phenylheptanoyl)oxazole-4-carboxamide]	–	–	1.8	1.8 ± 0.005	–
O=C(CCCCCCc1ccccc1)c1nc(-c2ccccn2)co1 [Compound 4k, 7-Phenyl-1-(4-(pyridin-2-yl)oxazol-2-yl)heptan-1-one]	> 100000	10000	1.9	1.9 ± 0.02	enhancement in FAAH selectivity ([5]; relative to 4a, text b175): > 40,000 fold; TGH (selectivity) [5]: (330); KIAA1363 (selectivity) [6]: (>3000); IC50 (FAAH): 30 nM; Ki ([3]; Table 2, read-out: FAAH Ki): 1.9 nM
O=C(CCCCCCc1ccccc1)c1nc(Cl)co1 [Compound 4c, 1-(4-Chlorooxazol-2-yl)-7-phenylheptan-1-one]	–	–	4	4 ± 0.05	–

Continued, in another order:

IC50 [1] [nM]	IC50 [2] [nM]	Ki [3, 7] [nM]	Ki [3, 8] [nM]	Structure (SMILES)	further results
> 100000	20	–	–	N#Cc1cnc(C(=O)CCCCCCc2ccccc2)o1 [Compound 5b, reference compound]	–
–	–	2	2 ± 0.07	CC(=O)c1coc(C(=O)CCCCCCc2ccccc2)n1 [Compound 4h, 1-(4-Acetyloxazol-2-yl)-7-phenylheptan-1-one]	–
> 100000	200	–	–	O=C(CCCCCCc1ccccc1)c1ncc(C(F)(F)F)o1 [Compound 5a, reference compound]	TGH (selectivity) [5]: (3); KIAA1363 (selectivity) [6]: (>1400); IC50 (FAAH): 70 nM; Ki ([3]; Table 2, read-out: FAAH Ki): 0.3 nM
> 100000	2500	53	53 ± 1	O=C(O)c1coc(C(=O)CCCCCCc2ccccc2)n1 [Compound 4o, 2-(7-Phenylheptanoyl)oxazole-4-carboxylic Acid]	TGH (selectivity) [5]: (5); KIAA1363 (selectivity) [6]: (>200); IC50 (FAAH): 500 nM; Ki ([3]; Table 2, read-out: FAAH Ki): 53 nM
–	–	6.5	6.5 ± 0.26	O=C(CCCCCCc1ccccc1)c1nc(I)co1 [Compound 4d, 1-(4-Iodooxazol-2-yl)-7-phenylheptan-1-one]	–
> 100000	> 100000	–	–	O=C(O)c1cnc(C(=O)CCCCCCc2ccccc2)o1 [Compound 5d, reference compound]	IC50 (FAAH): 900 nM
20000	20	–	–	O=C(CCCCCCc1ccccc1)c1ncco1 [Compound 4a]	IC50 (FAAH): 2500 nM
–	–	1.6	1.6 ± 0.001	NC(=O)c1coc(C(=O)CCCCCCc2ccccc2)n1 [Compound 4p, 2-(7-Phenylheptanoyl)oxazole-4-carboxamide]	–
